15 molecules from US9156853B2, “AKT inhibitor compounds for treatment of cancer” (ALMAC DISCOVERY LIMITED, priority 2012, dated 2015) can be followed below.

What all share (assay type): biochemical
Experiment [1] addresses T1, AKT1 (Homo sapiens, UniProt P31749).
T1 construct: purchased SignalChem
Put plainly: AKT Kinase Assay (IMAP fluorescent polarisation), AKT1 isoform. The following applies: for IC50: activated AKT1, FAM Crosstide substrate; for potency against AKT1 compared with the comparator compound: compared with the non-hydroxylated Compound A, F or L. The protocol:
(§1) Testing of the compounds was performed using an AKT Kinase Assay:
(§2) Activated AKT isoforms 1, 2 and 3 were assayed utilising a 5′ FAM Crosstide (Seq. GRPRTSSFAEG-OH). The extent of kinase phosphorylation was determined by fluorescent polarisation using IMAP progressive binding reagent, which introduces binding beads which allow the reagent to specifically bind to phosphate residues via covalent co-ordination complex bonds.
(§3) iMAP binding solution stops Crosstide/kinase interaction and specifically binds phosphorylated substrates. The degree of phosphorylation is determined by fluorescent polarisation (excitation 485 nm; emission 528 nm) or the reduction in speed of rotation of the excited substrate.
(§4) The following materials were used in the assay: • a) Activated AKT isoforms (SignalChem.) dissolved in Complete Reaction buffer at a predetermined concentration selected so that the assay was carried out in the linear range. • b) AKT substrate peptide: FAM Crosstide (R7110) Molecular Devices, diluted in complete reaction buffer. • c) iMAP Progressive Screening Express Kit (R8127) Molecular Devices • d) Complete Reaction Buffer containing 0.1% BSA, 10 mM Tris-HCl, 10 mM MgCl2, 0.05% NaN3 and 0.01% phosphate free BSA, 1 mM DTT • e) Progressive Binding Solution containing 75% Buffer A, 25% Buffer B and low volume Binding Reagent which contains the binding entity for the assay • f) ATP diluted in complete reaction buffer • g) Black polystyrene 384 well assay plates (Nunc). • h) Biotek Synergy 4 Hybrid Plate reader.
(§5) 5 μl of test compound was dissolved in DMSO (Sigma Aldrich) and serially diluted in complete reaction buffer to give a fourteen point half log dose response and plated into 384 well black plates. The compound was incubated at room temperature with activated AKT isoform (5 μl) at the predetermined concentration, for 45 min.
(§6) 2.5 μl of ATP solution mixed with 2.5 μl of AKT substrate peptide (FAM Crosstide (R7110) Molecular Devices) were dispensed into each well and the plate centrifuged at 1000 rpm for 20 seconds to ensure homogenous mixing of reagents. The reaction mix was incubated in the dark for 1 h at room temperature.
(§7) The kinase reaction was stopped by the addition of Progressive Binding Solution and the mixture allowed to equilibrate for 1 h in the dark, at room temperature.
(§8) The fluorescent polarisation generated in each well was determined using a […] Synergy 4 Hybrid plate reader. In brief, each reaction solution was excited at 485 nm with the emission measured at 528 nm in both the parallel and perpendicular pathway.
(§9) The polarisation value generated in each well was calculated by Gen5 software (Biotek) and the % inhibition of kinase activity compared to vehicle control was calculated via GraphPad Prism. IC50 values for each compound were calculated by non-linear regression analysis using Prism software.
(§10) All plates were internally controlled by two methods. Firstly, by calculating the signal:noise ratio; based on kinase polarisation without inhibitor and polarisation generated by complete reaction buffer in the absence of activated kinase. Secondly by determining IC50 values generated by known inhibitors of the AKT isoforms.
(§11) The data was analysed using GraphPad Prism, with IC50 values generated using non-linear regression of the data set.

Experiment [2] addresses T2, AKT3 (Homo sapiens, UniProt Q9Y243).
T2 construct: purchased SignalChem
Put plainly: AKT Kinase Assay (IMAP fluorescent polarisation), AKT3 isoform. The following applies: for IC50: activated AKT3, FAM Crosstide substrate; for potency against AKT3 compared with the comparator compound: compared with the non-hydroxylated Compound A, F or L. The protocol:
as §1, §2, §3, §4, §5, §6, §7, §8, §9, §10, §11

Experiment [3] has as its target T3, AKT2 (Homo sapiens, UniProt P31751).
T3 construct: purchased SignalChem
Put plainly: AKT Kinase Assay (IMAP fluorescent polarisation), AKT2 isoform. The following applies: for IC50: activated AKT2, FAM Crosstide substrate; for potency against AKT2 compared with the comparator compound: compared with the non-hydroxylated Compound A, F or L. The protocol:
as §1, §2, §3, §4, §5, §6, §7, §8, §9, §10, §11

Structures can show the parent of a compound that is named as a salt. A value given as a limit tells only on which side of the number the result lay.

T2 sequence (Q9Y243 whole entry): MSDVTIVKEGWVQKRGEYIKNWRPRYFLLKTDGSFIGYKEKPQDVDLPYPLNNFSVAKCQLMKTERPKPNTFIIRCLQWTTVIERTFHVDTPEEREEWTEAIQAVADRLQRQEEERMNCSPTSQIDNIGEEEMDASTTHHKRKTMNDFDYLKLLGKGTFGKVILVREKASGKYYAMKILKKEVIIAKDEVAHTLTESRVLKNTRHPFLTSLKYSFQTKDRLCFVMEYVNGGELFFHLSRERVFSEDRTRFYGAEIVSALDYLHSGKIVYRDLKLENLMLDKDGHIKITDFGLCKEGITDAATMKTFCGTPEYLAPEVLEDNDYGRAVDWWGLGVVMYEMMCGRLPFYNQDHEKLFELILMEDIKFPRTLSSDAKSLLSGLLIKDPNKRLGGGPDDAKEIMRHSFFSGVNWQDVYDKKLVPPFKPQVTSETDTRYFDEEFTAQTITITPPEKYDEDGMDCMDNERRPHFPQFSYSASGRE
T1 sequence (P31749 whole entry): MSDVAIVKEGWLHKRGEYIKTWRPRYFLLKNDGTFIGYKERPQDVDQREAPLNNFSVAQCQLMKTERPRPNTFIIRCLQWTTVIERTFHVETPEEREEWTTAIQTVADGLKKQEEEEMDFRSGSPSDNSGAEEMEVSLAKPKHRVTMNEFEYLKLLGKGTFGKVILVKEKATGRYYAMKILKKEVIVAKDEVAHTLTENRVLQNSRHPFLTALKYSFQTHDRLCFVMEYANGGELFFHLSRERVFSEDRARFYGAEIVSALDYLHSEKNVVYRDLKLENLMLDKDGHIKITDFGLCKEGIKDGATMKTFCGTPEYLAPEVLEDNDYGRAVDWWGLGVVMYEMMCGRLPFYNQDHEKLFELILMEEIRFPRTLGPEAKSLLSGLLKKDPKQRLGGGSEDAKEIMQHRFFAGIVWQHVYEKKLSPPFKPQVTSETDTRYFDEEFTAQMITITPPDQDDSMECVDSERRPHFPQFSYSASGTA
T3 sequence (P31751 whole entry): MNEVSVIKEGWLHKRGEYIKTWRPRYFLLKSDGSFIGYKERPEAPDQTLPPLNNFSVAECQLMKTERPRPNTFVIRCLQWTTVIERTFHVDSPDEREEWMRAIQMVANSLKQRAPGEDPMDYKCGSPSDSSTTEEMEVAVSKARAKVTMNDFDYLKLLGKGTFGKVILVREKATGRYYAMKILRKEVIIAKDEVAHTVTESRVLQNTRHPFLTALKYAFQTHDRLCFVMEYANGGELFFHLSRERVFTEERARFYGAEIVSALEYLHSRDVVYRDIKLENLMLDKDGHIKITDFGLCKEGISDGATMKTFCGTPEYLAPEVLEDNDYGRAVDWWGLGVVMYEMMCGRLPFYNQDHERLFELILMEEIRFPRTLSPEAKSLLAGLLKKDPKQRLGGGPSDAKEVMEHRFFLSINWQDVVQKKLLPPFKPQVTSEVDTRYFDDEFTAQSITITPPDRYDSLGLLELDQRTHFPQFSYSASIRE

In general, IC50 refers to the concentration needed to halve the response being measured. In the case of `C[C@]1(O)C[C@](N)(c2ccc(-c3sc4ncn(CC(F)(F)F)c(=O)c4c3-c3ccccc3)cc2)C1` [Compound 8, 6-(4-((1s,3s)-1-Amino-3-hydroxy-3-methylcyclobutyl)phenyl)-5-phenyl-3-(2,2,2-trifluoroethyl)thieno[2,3-d]pyrimidin-4(3H)-one.HCl], in experiment [1], the IC50 was at most 300 nM and the “potency against AKT1 compared with the comparator compound” value is listed as “improved potency”. In experiment [2], the half-maximal inhibitory concentration (IC50) fell in the range of 1000 to 6000 nM and the “potency against AKT3 compared with the comparator compound” value is given as “improved potency”. In experiment [3], the IC50 is 20 to 100 nM and the “potency against AKT2 compared with the comparator compound” value is “improved potency”.
For `N[C@]1(c2ccc(-c3sc4ncn(CC(F)(F)F)c(=O)c4c3-c3ccccc3)cc2)C[C@H](O)C1` [Compound 9, 6-(4-((1s,3s)-1-Amino-3-hydroxycyclobutyl)phenyl)-5-phenyl-3-(2,2,2-trifluoroethyl)thieno[2,3-d]pyrimidin-4(3H)-one.HCl], in experiment [1], the IC50 is at most 300 nM and the “potency against AKT1 compared with the comparator compound” value is on record as “improved potency”. In experiment [2], the IC50 lay within 1000 to 6000 nM and the “potency against AKT3 compared with the comparator compound” value is “improved potency”. In experiment [3], the IC50 is at most 20 nM and the “potency against AKT2 compared with the comparator compound” value is on record as “improved potency”.
On to `Cn1c(-c2ccc([C@]3(N)C[C@@](C)(O)C3)cc2)c(-c2ccccc2)c2c(=O)n(CC(F)(F)F)cnc21` [Compound 10, 6-(4-((1s,3s)-1-Amino-3-hydroxy-3-methylcyclobutyl)phenyl)-7-methyl-5-phenyl-3-(2,2,2-trifluoroethyl)-3H-pyrrolo[2,3-d]pyrimidin-4(7H)-one.HCl], for which the IC50 in experiment [1] lay in the range of 300 to 1500 nM. In experiment [2], the IC50 lay within 1000 to 6000 nM and the “potency against AKT3 compared with the comparator compound” value is recorded as “improved potency”. Also, in experiment [3], the half-inhibitory concentration (IC50) is at most 20 nM and the “potency against AKT2 compared with the comparator compound” value is listed as “improved potency”.
On to `Cn1c(-c2ccc([C@]3(N)C[C@H](O)C3)cc2)c(-c2ccccc2)c2c(=O)n(CC(F)(F)F)cnc21` [Compound 11, 6-(4-((1r,3r)-1-Amino-3-hydroxycyclobutyl)phenyl)-7-methyl-5-phenyl-3-(2,2,2-trifluoroethyl)-3H-pyrrolo[2,3-d]pyrimidin-4(7H)-one.HCl], for which the figures for the IC50 in experiment [1], in experiment [2] and in experiment [3] were above 1500 nM, above 6000 nM and 20 to 100 nM, respectively.
Consider `N[C@]1(c2ccc(-c3sc4ncn(CC(F)(F)F)c(=O)c4c3-c3ccccc3)cc2)C[C@@H](O)C1` [Compound 12, 6-(4-((1r,3r)-1-Amino-3-hydroxycyclobutyl)phenyl)-5-phenyl-3-(2,2,2-trifluoroethyl)thieno[2,3-d]pyrimidin-4(3H)-one.HCl], for which, in experiment [1], the IC50 was 300 to 1500 nM. Also, in experiment [2], the IC50 lay in the range of 1000 to 6000 nM and the “potency against AKT3 compared with the comparator compound” value is listed as “improved potency”. Further, in experiment [3], the half-inhibitory concentration (IC50) lay within 20 to 100 nM and the “potency against AKT2 compared with the comparator compound” value is listed as “improved potency”.
With `C[C@]1(O)C[C@@](N)(c2ccc(-c3oc4ncn(CC(F)(F)F)c(=O)c4c3-c3ccncc3)cc2)C1` [Compound 13, 6-(4-((1r,3r)-1-Amino-3-hydroxy-3-methylcyclobutyl)phenyl)-5-(pyridin-4-yl)-3-(2,2,2-trifluoroethyl)furo[2,3-d]pyrimidin-4(3H)-one.TFA], the figures for the IC50 in experiment [1], in experiment [2] and in experiment [3] were above 1500 nM, above 6000 nM and at most 20 nM, respectively. The “selectivity for AKT2 over AKT1 and AKT3 compared with compound A” value in experiment [3] (compared with compound A) was “greater selectivity”. In experiment [3], the “potency against AKT2 compared with the comparator compound” value is on record as “improved potency”.
For the molecule `C[C@]1(O)C[C@@](N)(c2ccc(-c3oc4ncn(CC(F)(F)F)c(=O)c4c3-c3ccccn3)cc2)C1` [Compound 14, 6-(4-((1r,3r)-1-Amino-3-hydroxy-3-methylcyclobutyl)phenyl)-5-(pyridin-2-yl)-3-(2,2,2-trifluoroethyl)furo[2,3-d]pyrimidin-4(3H)-one.HCl], the values for the IC50 in experiment [1], in experiment [2] and in experiment [3] were above 1500 nM, above 6000 nM and above 100 nM, respectively.
The matching figures for `Cn1c(-c2ccc([C@]3(N)C[C@](C)(O)C3)cc2)c(-c2ccccn2)c2c(=O)n(CC(F)(F)F)cnc21` [Compound 15, 6-(4-((1r,3r)-1-Amino-3-hydroxy-3-methylcyclobutyl)phenyl)-7-methyl-5-(pyridin-2-yl)-3-(2,2,2-trifluoroethyl)-3H-pyrrolo[2,3-d]pyrimidin-4(7H)-one.TFA]: above 1500 nM, above 6000 nM and above 100 nM.
On to `Cn1c(-c2ccc([C@]3(N)C[C@](C)(O)C3)cc2)c(-c2cccnc2)c2c(=O)n(CC(F)(F)F)cnc21` [Compound 16, 6-(4-((1r,3r)-1-Amino-3-hydroxy-3-methylcyclobutyl)phenyl)-7-methyl-5-(pyridin-3-yl)-3-(2,2,2-trifluoroethyl)-3H-pyrrolo[2,3-d]pyrimidin-4(7H)-one.TFA], for which the figures for the half-maximal inhibitory concentration (IC50) in experiment [1], in experiment [2] and in experiment [3] were above 1500 nM, above 6000 nM and above 100 nM, respectively.
With `Cn1c(-c2ccc([C@]3(N)C[C@](C)(O)C3)cc2)c(-c2ccncc2)c2c(=O)n(CC(F)(F)F)cnc21` [Compound 17, 6-(4-((1r,3r)-1-Amino-3-hydroxy-3-methylcyclobutyl)phenyl)-7-methyl-5-(pyridin-4-yl)-3-(2,2,2-trifluoroethyl)-3H-pyrrolo[2,3-d]pyrimidin-4(7H)-one.HCl], the IC50 in experiment [1] was above 1500 nM; in experiment [2], above 6000 nM; in experiment [3], above 100 nM.
The like results for `Cn1c(-c2ccc([C@]3(N)C[C@@](C)(O)C3)cc2)c(-c2ccccn2)c2c(=O)n(CC(F)(F)F)cnc21` [Compound 18, 6-(4-((1 s,3s)-1-Amino-3-hydroxy-3-methylcyclobutyl)phenyl)-7-methyl-5-(pyridin-2-yl)-3-(2,2,2-trifluoroethyl)-3H-pyrrolo[2,3-d]pyrimidin-4(7H)-one.HCl] were, in that order, above 1500 nM, above 6000 nM and above 100 nM.
The like results for `C[C@]1(O)C[C@](N)(c2ccc(-c3sc4ncn(CC(F)(F)F)c(=O)c4c3-c3ccccn3)cc2)C1` [Compound 19, 6-(4-((1s,3s)-1-Amino-3-hydroxy-3-methylcyclobutyl)phenyl)-5-(pyridin-2-yl)-3-(2,2,2-trifluoroethyl)thieno[2,3-d]pyrimidin-4(3H)-one.HCl] were, in that order, above 1500 nM, above 6000 nM and above 100 nM.
The like results for `C[C@]1(O)C[C@@](N)(c2ccc(-c3sc4ncn(CC(F)(F)F)c(=O)c4c3-c3ccccn3)cc2)C1` [Compound 20, 6-(4-((1r,3r)-1-Amino-3-hydroxy-3-methylcyclobutyl)phenyl)-5-(pyridin-2-yl)-3-(2,2,2-trifluoroethyl)thieno[2,3-d]pyrimidin-4(3H)-one.HCl] were, in that order, above 1500 nM, above 6000 nM and above 100 nM.
For `NC1(c2ccc(-c3sc4ncn(CC(F)(F)F)c(=O)c4c3-c3ccccc3)cc2)CCC1` [Compound F, reference compound], the half-inhibitory concentration (IC50) in experiment [1] was 300 to 1500 nM; in experiment [2] it was above 6000 nM; in experiment [3], above 100 nM.
The matching figures for `Cn1c(-c2ccc(C3(N)CCC3)cc2)c(-c2ccccc2)c2c(=O)n(CC(F)(F)F)cnc21` [Compound L, reference compound]: 300 to 1500 nM, above 6000 nM and 20 to 100 nM.
